Assay results reported in patent US5994365A, “Substituted diazaanthracene compounds having pharmaceutical utility” (Diazans Limited, priority 1998, dated 1999).
In brackets after ≈: the same amount, converted by molar mass. Where two headings read alike, the source gives them in different places.

Assays:
[1] = test system: S. aureus; settings: taken from Antibiotics in Laboratory Medicine; cited from earlier work
[2] = test system: Hymenolepis nata; settings: U.S. Pat. No. 3,862,945; cited from earlier work
[3] = test system: S. aureus ATCC 25923; assay: Microbroth dilution assay of antimicrobial susceptibility (MIC); format: cell-based, Staphylococcus aureus; settings: microdilution, CAMHB, 37° C.
Procedure: It is described below, using E. coli ATCC® 25922, S. aureus ATCC® 25923, and P. aeruginosa ATCC® 27853. Prepare 0.0128 g DAA in 10 mL dH2 O (or 95% EtOH, methanol or DMSO if H2 O insoluble)=1280 μg/mL (stock solution). Dilute DAA stock solution 1:10 with CAMHB (Cation-Adjusted Mueller Hinton Broth): 0.5 mL DAA stock solution+4.5 mL CAMHB=128 μg/mL (DAA working solution). Pipette 100 μl of sterile CAMHB per well into columns 2-12 of rows A-G using Eppendorf repeater pipette. Pipette 100 μl per well of sterile-filtered DAA working solution into columns 1 and 2 of rows A, C, E, G using Jensen electric pipette. Mix and transfer 100 μl from column 2 to 3 of rows A, C, E, G using Jensen pipette. Repeat to column 12 then discard 100 μl from column 12. Rows B, D and F are positive growth control lanes for each organism and contain only CAMHB and the organism--no DAA. Row H is the media additive control lane, if necessary (e.g. MeOH, EtOH, DMSO etc.). The concentration of the media additive is obtained by doing a 1:10 dilution of the additive with CAMHB (0.5 mL additive+4.5 mL CAMHB). Row G is considered to be "negative growth control" and is loaded with only CAMHB and the DAA. Inoculate 0.5 mL TSB (Trypticase Soy Broth) tubes with 3 single colonies each of E. coli, S. aureus, and P. Aeruginosa from TSA plates using sterile needle. Incubate @ 37° C. for 4-6 hr. Measure out 100 mL CAMHB using the sterile 100 mL volumetric flask. Pour the excess into a sterile reagent reservoir. Pipette 0.5 mL and discard, leaving 99.5 mL in each of the 3-Erlenmeyer flasks. Set aside. Use the excess CAMHB for the 1:10 dilution of inoculum: 0.5 mL inoculum+4.5 mL CAMHB. Perform a 1:200 dilution of inoculum: 0.5 mL of 1:10 diluted inoculum+99.5 mL CAMHB from previous step. Pipette 100 μl (using Eppendorf repeater pipette) E. coli into each well in columns 1-12 of rows A and B and columns 1-4 of row H (if media additive control lane necessary). Pipette 100 μl P. aeruginosa into each well in columns 1-12 of rows C and D and columns 5-8 of row H (if media additive control lane is necessary). Pipette 100 μl S. aureus into each well in columns 1-12 of rows E and F and columns 9-12 of row H (if media additive control lane is necessary). Incubate microtiter plates @ 37° C. for 18 hrs. The lowest concentration of antimicrobial agent that results in significant inhibition of visible growth represents the MIC (Minimal Inhibitory Concentration).

[4] = test system: ASPC-1; assay: Antineoplastic activity, fluorescence based live-cell/dead cell ratio; settings: Homo sapiens, ASPC1, ASPC-1
Procedure: (§1) Values of IC50 (inhibitory concentration 50%) were calculated from the relative percent transmitted light as detected on a fluorescence 96 well plate reader.

[5] = test system: ZR-75-1; assay: as above; settings: Homo sapiens, ZR-75-1, ZR-75-1
Procedure: as §1

[6] = test system: 41-SK; assay: as above; design: species or system human
Procedure: as §1

[7] = test system: Escherichia coli ATCC 25922; assay: Macrobroth dilution testing for antimicrobial activity (MIC); format: cell-based; settings: ATCC25922, 18 h, macrodilution, read-out: Minimum Inhibitory Concentration
Procedure: (§2) A working antimicrobial solution was prepared by diluting the test compound in Mueller Hinton Broth (MHB) to the highest final concentration desired. The test was performed in 13×100 mm test tubes. Two mL of the working solution of test compound were added to test tube 1 of the dilution series. To each remaining tube, 1.0 mL of MHB was added. A sterile pipette was used to transfer 1.0 mL from tube 1 to tube 2. After thorough mixing 1.0 mL was transferred (with a separate pipette for this and each succeeding transfer) to tube 3. This process was continued to the next to last tube from which 1.0 mL was removed and discarded. The last tube received no antimicrobial agent and served as a growth control. The inoculum was prepared and adjusted to contain […] by adjusting the turbidity of a broth culture to match to 0.5 McFarland standard. It was then further diluted 1:200 in broth. One mL of the adjusted inoculum was added to each test tube. The final concentrations of antimicrobial agents in this test were half those of the initial dilution series because of the addition of an equal volume of inoculum in broth. Tubes were incubated at 35° C. for 18 hours. […] A very faint haziness or a small button is usually disregarded.

[8] = test system: Pseudomonas aeruginosa ATCC 27853; assay: as above; format: cell-based; settings: ATCC27853, 18 h, macrodilution, read-out: Minimum Inhibitory Concentration
Procedure: as §2

[9] = test system: Staphlococcus aureus ATCC 25923; assay: as above; format: cell-based; settings: Staphylococcus aureus, ATCC25923, 18 h, macrodilution, read-out: Minimum Inhibitory Concentration
Procedure: as §2

[10] = test system: C. albicans ATCC 90028; assay: In vitro antifungal susceptibility assay adapted from NCCLS (MIC); format: cell-based, Candida albicans
Procedure: (§3) Compounds of the invention also display antifungal activities. […] Using C. albicans ATCC® 90028, C. neoformans ATCC® 90112 and T. glabrata ATCC® 90030, the protocol is performed as follows:
(§4) Prepare 0.0128 g DAA in 10 mL dH2 O (or other if H2 O insoluble)=1280 μg/mL (stock solution). Dilute DAA stock solution 1:10 with RPMI-1640: 0.5 mL DAA stock solution+4.5 mL RPMI-1640=128 μg/mL (DAA working solution).
(§5) Inoculate rows A-H, columns 2-12 with 100 μl of RPMI-1640 using Eppendorf repeater pipette. Inoculate rows A-C columns 1 and 2 with 100 μl of 1st antibiotic (i.e. DAA-1) using electronic pipette. Inoculate rows E-G columns 1 and 2 with 100 μl of 2nd antibiotic (i.e. DAA-2) using electronic pipette. […] Plate is now ready for fungal inocula, which involves pipetting 100 μl of the inocula into all wells in rows A-C columns 1-12 and rows E-G columns 1-12. […]
(§6) Five colonies greater than 1 mm in diameter are suspended in a spectrophotometer cuvette containing 5 mL of sterile, 0.85% saline (colonies are obtained from 24 hrs. old Candida and Torulopsis cultures, while Cryptococcus colonies are chosen from 48 hrs. old cultures). Spectrophotometer is set to read % transmission at a wavelength of 530 nm, and is standardized using two cuvettes. […] Fungal inoculum is now prepared and ready to be introduced to microplates. […]

[11] = test system: E. coli ATCC 25922; settings: control limits, Gentamicin 10 mcg disk; cited from earlier work
[12] = test system: S. aureus ATCC 25923; settings: control limits, Gentamicin 10 mcg disk; cited from earlier work
[13] = test system: P. aeruginosa ATCC 27853; settings: control limits, Gentamicin 10 mcg disk; cited from earlier work
[14] = test system: E. coli ATCC 25922; assay: Microbroth dilution assay of antimicrobial susceptibility (MIC); format: cell-based; settings: Escherichia coli, ATCC25922; microdilution, CAMHB, 37° C., 18 hrs
Procedure: It is described below, using E. coli ATCC® 25922, S. aureus ATCC® 25923, and P. aeruginosa ATCC® 27853. Prepare 0.0128 g DAA in 10 mL dH2 O (or 95% EtOH, methanol or DMSO if H2 O insoluble)=1280 μg/mL (stock solution). Dilute DAA stock solution 1:10 with CAMHB (Cation-Adjusted Mueller Hinton Broth): 0.5 mL DAA stock solution+4.5 mL CAMHB=128 μg/mL (DAA working solution). Pipette 100 μl of sterile CAMHB per well into columns 2-12 of rows A-G using Eppendorf repeater pipette. Pipette 100 μl per well of sterile-filtered DAA working solution into columns 1 and 2 of rows A, C, E, G using Jensen electric pipette. Mix and transfer 100 μl from column 2 to 3 of rows A, C, E, G using Jensen pipette. Repeat to column 12 then discard 100 μl from column 12. Rows B, D and F are positive growth control lanes for each organism and contain only CAMHB and the organism--no DAA. Row H is the media additive control lane, if necessary (e.g. MeOH, EtOH, DMSO etc.). The concentration of the media additive is obtained by doing a 1:10 dilution of the additive with CAMHB (0.5 mL additive+4.5 mL CAMHB). Row G is considered to be "negative growth control" and is loaded with only CAMHB and the DAA. Inoculate 0.5 mL TSB (Trypticase Soy Broth) tubes with 3 single colonies each of E. coli, S. aureus, and P. Aeruginosa from TSA plates using sterile needle. Incubate @ 37° C. for 4-6 hr. […]

[15] = test system: C. neoformans ATCC 90112; assay: In vitro antifungal susceptibility assay adapted from NCCLS (MIC); format: cell-based, Cryptococcus neoformans; settings: Cryptococcus neoformans, ATCC90112; RPMI-1640; read-out: MIC
Procedure: as §3, §4, §5, §6

[16] = test system: T. glabrata ATCC 90030; assay: as above; format: cell-based, Torulopsis glabrata; settings: Nakaseomyces glabratus, ATCC90030; RPMI-1640; read-out: MIC
Procedure: as §3, §4, §5, §6

[17] = Staphylococcus aureus, ATCC25923, 18 h, read-out: MIC

**Q.** Which MIC [1] does the source give for `O=C(O)c1cn(C2CC2)c2cc(N3CCNCC3)c(F)cc2c1=O` [Ciprofloxacin] here?
**A.** The MIC was 0.25 to 1 µg/mL.

**Q.** Which anti-parasitic activity [2] does the source give for `CC1NCc2cc3c(cc2C1c1ccccc1)CNC(C)C3c1ccccc1.Cl.Cl` (centres unmarked) [1,2,3,4,6,7,8,9-octahydro-3,8-dimethyl-4,9-diphenyl-pyrido[3,4-g]isoquinoline dihydrochloride] here?
**A.** The anti-parasitic activity was “has an anti-parasitic activity”.

**Q.** For `Cc1cncc2cc3c(C)cncc3cc12` [Example 17], which MIC [3, 17] is on record?
**A.** Its MIC is 64 µg/mL (≈ 307 µM).

**Q.** With `Cc1cc2cc3c(C)c[n+](C)cc3cc2[n+](C)c1` [Example 8.4, N,N'-dimethyl-1,8-DAA-3,6-(Me)2 tetrafluoroborate hemihydrate] as the molecule, how does the IC50 [4] read?
**A.** Its IC50 is 62.5 µg/mL.

**Q.** What about the IC50 [5] of the same molecule?
**A.** Its IC50 is 38.3 µg/mL.

**Q.** And the IC50 ([6]; Homo sapiens, read-out: IC50)?
**A.** The IC50 was 35.9 µg/mL.

**Q.** Which MIC [7] does the source give for `Cc1cnc2cc3cncc(C)c3cc2c1` [Derivative No. 1] here?
**A.** Its MIC is 64 µg/mL (≈ 307 µM).

**Q.** And the MIC [8]?
**A.** Its MIC is > 64 µg/mL.

**Q.** And the MIC [9]?
**A.** The MIC was 4 µg/mL (≈ 19.2 µM).

**Q.** What about the MIC ([3]; 18 hrs, listed as 1,8-DAA-3,6-(Me)2.HCl) of the same molecule?
**A.** The MIC was 32 µg/mL (≈ 154 µM).

**Q.** And the MIC ([10]; RPMI-1640, listed as 1,8-DAA-3,6-(Me)2.HCl)?
**A.** The MIC was 64 µg/mL (≈ 307 µM).

**Q.** What about the IC50 [4] of the same molecule?
**A.** Its IC50 is 58 µg/mL.

**Q.** And the IC50 [5]?
**A.** Its IC50 is 47.3 µg/mL.

**Q.** What about the IC50 ([6]; listed as 1,8-DAA(Me)2 · HCl) of the same molecule?
**A.** The IC50 was 139.2 µg/mL.

**Q.** With Gentamicin as the molecule, how does the MIC [1] read?
**A.** Its MIC is 0.25 to 16 µg/mL.

**Q.** What about the control zone diameter [11] of the same molecule?
**A.** Its control zone diameter is 19-26 mm.

**Q.** What about the control zone diameter [12] of the same molecule?
**A.** Its control zone diameter is 19-27 mm.

**Q.** What about the control zone diameter [13] of the same molecule?
**A.** The control zone diameter was 16-21 mm.

**Q.** Which MIC [1] does the source give for `CC1(C)S[C@@H]2[C@H](NC(=O)Cc3ccccc3)C(=O)N2[C@H]1C(=O)O` [Penicillin] here?
**A.** The MIC was 8 to 16 µg/mL.

**Q.** Which results are given for `Cc1cc2cc3c(C)c[n+]([O-])cc3cc2[n+]([O-])c1` [Derivative No. 7]?
**A.** MIC [3, 17]: 0.125 µg/mL (≈ 0.52 µM); MIC [14]: 4 µg/mL (≈ 16.6 µM); IC50 [4]: 9.3 µg/mL; IC50 [5]: 1.9 µg/mL; IC50 ([6]; Homo sapiens, read-out: IC50): 11.3 µg/mL

**Q.** With `CN(C)C1C(=O)C(C(N)=O)=C(O)C2(O)C(=O)C3=C(O)c4c(O)cccc4C(C)(O)C3CC12` (centres unmarked) [Tetracycline] as the molecule, how does the MIC [1] read?
**A.** Its MIC is 0.5 to 32 µg/mL.

**Q.** What does the source list for `Cc1cnc2c(c1)C(=O)c1c(C)cncc1C2=O` [Example 14]?
**A.** MIC [3, 17]: 1 µg/mL (≈ 4.2 µM); MIC ([10]; Candida albicans, ATCC90028, RPMI-1640, read-out: MIC): 8 µg/mL (≈ 33.6 µM); MIC [15]: 4 µg/mL (≈ 16.8 µM); MIC [16]: 4 µg/mL (≈ 16.8 µM)
